Source: ChEMBL document CHEMBL3046073, “Synthesis and cytotoxicity of novel 6H-indolo[2,3-b]quinoxaline derivatives” (2013)

Experiments:
Format in all cases: functional
DU-145 = experiment: Cytotoxicity against Homo sapiens (human) DU145 cells assessed as cell viability at 10 uM after 72 hr by MTT assay; settings: DU-145, 72 h, read-out: Activity
A549 = experiment: Cytotoxicity against Homo sapiens (human) A549 cells assessed as cell viability at 10 uM after 72 hr by MTT assay; settings: A549, 72 h, read-out: Activity
HeLa = experiment: Cytotoxicity against Homo sapiens (human) HeLa cells assessed as cell viability at 10 uM after 72 hr by MTT assay; settings: read-out: Activity

SMILES	viability at 10 µM (DU-145) [%]	viability at 10 µM (A549) [%]	viability at 10 µM (HeLa) [%]
Clc1cccc(-n2cc(Cn3c4ccccc4c4nc5ccccc5nc43)nn2)c1	77.5	104	77.5
Fc1ccc(-n2cc(Cn3c4ccccc4c4nc5ccccc5nc43)nn2)cc1	83.2	94.7	77.4
FC(F)(F)c1cccc(-n2cc(Cn3c4ccccc4c4nc5ccccc5nc43)nn2)c1	76.5	83.4	76.9
Brc1ccccc1-n1cc(Cn2c3ccccc3c3nc4ccccc4nc32)nn1	85.4	85.5	75.6
Fc1ccc(-n2cc(Cn3c4ccccc4c4nc5ccccc5nc43)nn2)c(F)c1	77.4	94.7	80.7
Fc1cc(-n2cc(Cn3c4ccccc4c4nc5ccccc5nc43)nn2)ccc1Cl	76.1	83.5	93.6
Fc1ccc(COc2cccc(-n3cc(Cn4c5ccccc5c5nc6ccccc6nc54)nn3)c2)cc1	77.6	98.3	81.5
Fc1ccc2c(c1)c1nc3ccccc3nc1n2Cc1cn(-c2ccccc2)nn1	72.6	97.8	92
Fc1ccc2c(c1)c1nc3ccccc3nc1n2Cc1cn(-c2cccc(Cl)c2)nn1	73.2	91.9	77.7
Fc1ccc(-n2cc(Cn3c4ccc(F)cc4c4nc5ccccc5nc43)nn2)cc1	85	97.1	91.9
Fc1ccc2c(c1)c1nc3ccccc3nc1n2Cc1cn(-c2cccc(C(F)(F)F)c2)nn1	77.5	93.7	86.4
Fc1ccc2c(c1)c1nc3ccccc3nc1n2Cc1cn(-c2ccccc2Br)nn1	90.1	94.7	89.4
Fc1ccc(-n2cc(Cn3c4ccc(F)cc4c4nc5ccccc5nc43)nn2)c(F)c1	77.3	87.9	86.8
COc1cccc2c1C(=O)c1c(O)c3c(c(O)c1C2=O)C[C@@](O)(C(=O)CO)C[C@@H]3O[C@H]1C[C@H](N)[C@H](O)[C@H](C)O1 [DOXORUBICIN]	9	6.33	12
